Molecular target: T1, human recombinant CBL-b (human Biotin CBL-b recombinant protein a.a. 39-426) (Homo sapiens, UniProt Q13191)
T1 construct: human Biotin CBL-b recombinant protein a.a; 39-426; Biotin (biotinylated); made in house
Experiment: Biochemical assay for CBL-b inhibition (ligand displacement TR-FRET)
Format: binding
Details: 50 nM CBL-b, 0.3 μM Bodipy FL-Probe, read-out: IC50 (CBL-b inhibition, group)
Protocol: The inhibitory activity of the test compounds was assessed by Ligand displacement TR-FRET assay. The human recombinant CBL-b (human Biotin CBL-b recombinant protein a.a. 39-426; synthesised in-house) was diluted in enzyme assay buffer (20 mM HEPES, 150 mM NaCl, 0.01% Triton X, 0.01% BSA, 0.5 mM TCEP) in a 10 μl volume and plated in 384-well plates (Cat #781075, Greiner) to a final concentration of 50 nM. The enzyme/compound mixture was incubated at RT for 60 min. The Bodipy FL-Probe described in WO 2020/210508 (synthesized in-house) diluted in enzyme assay buffer was added to the plate and incubated for 60 min RT, the final probe concentration was 0.3 μM. After 60 min incubation, 10 μl of detection mix (Terbium Streptavidin, (Cat #PV3576, Invitrogen) diluted in 1× Lance buffer) was added and incubated for 60 min at room temperature. Time-resolved fluorescence (excitation, 320 nm; emission donor, 615 nm; emission acceptor, 665 nm) was monitored by using 2030 multilabel reader Victor5 (PerkinElmer). The IC50 (concentration for half maximal inhibition) and % maximum inhibition of the compounds were estimated by fitting the dose response data to a sigmoidal curve fitting equation using Graph pad Prism software V. 8.

T1 sequence (Q13191 39-426): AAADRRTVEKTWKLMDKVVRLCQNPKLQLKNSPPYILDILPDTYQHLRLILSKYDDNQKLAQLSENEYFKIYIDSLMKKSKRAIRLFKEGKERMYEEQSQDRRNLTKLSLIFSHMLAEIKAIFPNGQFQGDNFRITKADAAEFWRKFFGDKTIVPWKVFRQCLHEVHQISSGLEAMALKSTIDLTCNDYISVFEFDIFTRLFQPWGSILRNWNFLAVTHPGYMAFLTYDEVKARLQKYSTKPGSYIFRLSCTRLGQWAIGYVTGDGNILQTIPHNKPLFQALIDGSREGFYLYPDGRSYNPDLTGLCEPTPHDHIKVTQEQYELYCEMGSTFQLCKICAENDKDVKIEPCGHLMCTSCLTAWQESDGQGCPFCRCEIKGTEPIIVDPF

Structure (SMILES)	IC50 [µM]
C[C@@H]1C[C@H](C)CN(Cc2cc(N3Cc4ccc([C@@H](C)Cc5nncn5C)cc4C3=O)nc(C(F)(F)F)c2)C1 (single isomer, unassigned) [Compound 86]	< 0.08
C[C@@H]1C[C@H](C)CN(Cc2cc(N3Cc4ccc([C@H](C)Cc5nncn5C)cc4C3=O)nc(C(F)(F)F)c2)C1 (single isomer, unassigned) [Compound 87]	0.08 to 0.3
C[C@H]1CCCN(Cc2cc(Cl)nc(N3Cc4ccc([C@H](C)Cc5nncn5C)cc4C3=O)c2)C1 (single isomer, unassigned) [Compound 90]	< 0.08
Cc1cc(CNCC2CC2)cc(N2Cc3ncc(-c4ccc(Cl)cc4-c4nncn4C)cc3C2=O)n1 [Compound 264]	0.08 to 0.3
Cc1cc(CNCC2CC2)cc(N2Cc3ccc(-c4cccnc4-c4nncn4C)cc3C2=O)n1 [Compound 266]	0.3 to 5
Cc1cc(CNCC2CC2)cc(N2Cc3ccc(-c4cc(F)c(F)cc4-c4nncn4C)cc3C2=O)n1 [Compound 267]	0.08 to 0.3
Cc1cc(CNCC2CC2)cc(N2Cc3ccc(-c4ccc(Cl)cc4-c4nnc5ccccn45)cc3C2=O)n1 [Compound 268]	0.3 to 5
Cc1cc(CNCC2CC2)cc(N2Cc3ccc(-c4cc(Cl)ccc4-c4nncn4C)cc3C2=O)n1 [Compound 270]	0.3 to 5
Cc1cc(CNCC2CC2)cc(N2Cc3ccc(-c4ccc(Cl)cc4-c4cc[nH]n4)cc3C2=O)n1 [Compound 271]	0.08 to 0.3
Cc1cc(CNCC2CC2)cc(N2Cc3ccc(-c4ccc(C(F)(F)F)cc4-c4nncn4C)cc3C2=O)n1 [Compound 272]	0.08 to 0.3
Cc1cc(CNC(C)(C)CCO)cc(N2Cc3ccc(-c4ccc(Cl)cc4-c4nncn4C)cc3C2=O)n1 [Compound 276]	0.08 to 0.3
Cc1cc(CNS(C)(=O)=O)cc(N2Cc3ccc(-c4ccc(F)cc4-c4nncn4C)cc3C2=O)n1 [Compound 283]	0.08 to 0.3
Cc1cc(CN[S+]([O-])C(C)(C)C)cc(N2Cc3ccc(-c4ccc(F)cc4-c4nncn4C)cc3C2=O)n1 (centres unmarked) [Compound 285]	0.3 to 5
Cc1cc(CN2CCC[C@@H]2CO)cc(N2Cc3ccc(-c4ccc(F)cc4-c4nncn4C)cc3C2=O)n1 [Compound 286]	0.08 to 0.3
Cc1cc(CNCC2CC2)cc(N2Cc3ccc(-c4ccc(F)cc4-c4ncco4)cc3C2=O)n1 [Compound 287]	0.08 to 0.3
Cc1cc(CN2CCC[C@H]2CO)cc(N2Cc3ccc(-c4ccc(F)cc4-c4nncn4C)cc3C2=O)n1 [Compound 288]	0.3 to 5
Cc1cc(CNCC2CC2)cc(N2Cc3ccc(-c4ccc(F)cc4-c4nocc4C)cc3C2=O)n1 [Compound 289, 2-(4-(((Cyclopropylmethyl)amino)methyl)-6-methylpyridin-2-yl)-6-(4-fluoro-2-(4-methylisoxazol-3-yl)phenyl)isoindolin-1-one]	< 0.08
CO[C@H]1CCN(Cc2cc(C)nc(N3Cc4ccc(-c5ccc(F)cc5-c5nncn5C)cc4C3=O)c2)C1 [Compound 290]	0.3 to 5
Cc1cc(CNCC2(O)COC2)cc(N2Cc3ccc(-c4ccc(F)cc4-c4nncn4C)cc3C2=O)n1 [Compound 291]	0.08 to 0.3
Cc1cc(CNCC2(C)COC2)cc(N2Cc3ccc(-c4ccc(F)cc4-c4nncn4C)cc3C2=O)n1 [Compound 292]	0.08 to 0.3

Structure (SMILES)	IC50 [µM]
Cc1cc(CN[C@H](CO)C(C)C)cc(N2Cc3ccc(-c4ccc(F)cc4-c4nncn4C)cc3C2=O)n1 [Compound 297]	0.08 to 0.3
Cc1cc(CNC(C)(C)C)cc(N2Cc3ccc(-c4ccc(F)cc4-c4nncn4C)cc3C2=O)n1 [Compound 299]	0.3 to 5
Cc1cc(CNCCO)cc(N2Cc3ccc(-c4ccc(F)cc4-c4nncn4C)cc3C2=O)n1 [Compound 301]	0.08 to 0.3
Cc1cc(CN(C)CC2CC2)cc(N2Cc3ccc(-c4ccc(F)cc4-c4nncn4C)cc3C2=O)n1 [Compound 312]	< 0.08
COCCN(Cc1cc(C)nc(N2Cc3ccc(-c4ccc(F)cc4-c4nncn4C)cc3C2=O)c1)CC1CC1 [Compound 313]	0.3 to 5
Cc1cc(CNCC2(CO)CC2)cc(N2Cc3ccc(-c4ccc(F)cc4-c4nncn4C)cc3C2=O)n1 [Compound 316]	0.08 to 0.3
CCN1CCC[C@@H]1CNCc1cc(C)nc(N2Cc3ccc(-c4ccc(F)cc4-c4nncn4C)cc3C2=O)c1 [Compound 317]	0.3 to 5
Cc1cc(CNCC(O)CN)cc(N2Cc3ccc(-c4ccc(F)cc4-c4nncn4C)cc3C2=O)n1 (centres unmarked) [Compound 318]	0.3 to 5
Cc1cc(CN[C@H](CO)CC(C)C)cc(N2Cc3ccc(-c4ccc(F)cc4-c4nncn4C)cc3C2=O)n1 [Compound 322]	0.08 to 0.3
Cc1cc(CNC(C2CC2)C(F)(F)F)cc(N2Cc3ccc(-c4ccc(F)cc4-c4nncn4C)cc3C2=O)n1 (centres unmarked) [Compound 324]	0.3 to 5
CCC(NCc1cc(C)nc(N2Cc3ccc(-c4ccc(F)cc4-c4nncn4C)cc3C2=O)c1)C(=O)NC (centres unmarked) [Compound 327]	0.3 to 5
Cc1cc(CN)cc(N2Cc3ccc(-c4ccc(F)cc4-c4nncn4C)cc3C2=O)n1 [Compound 331, 2-(4-(Aminomethyl)-6-methylpyridin-2-yl)-6-(4-fluoro-2-(4-methyl-4H-1,2,4triazol-3-yl)phenyl)isoindolin-1-one]	0.08 to 0.3
C=C(c1cc(C)nc(N2Cc3ccc(-c4ccc(F)cc4-c4nncn4C)cc3C2=O)c1)c1cnn(C)c1 [Compound 332, 6-(4-Fluoro-2-(4-methyl-4H-1,2,4-triazol-3-yl)phenyl)-2-(6-methyl-4-(1-(1-methyl-1H-pyrazol-4-yl)vinyl)pyridin-2-yl)isoindolin-1-one]	0.08 to 0.3
Cc1cc(C(C)c2cnn(C)c2)cc(N2Cc3ccc(-c4ccc(F)cc4-c4nncn4C)cc3C2=O)n1 (centres unmarked) [Compound 333, 6-(4-Fluoro-2-(4-methyl-4H-1,2,4-triazol-3-yl)phenyl)-2-(6-methyl-4-(1-(1-methyl-1H-pyrazol-4-yl)ethyl)pyridin-2-yl)isoindolin-1-one]	0.3 to 5
Cc1cc(C(C)c2nccn2C)cc(N2Cc3ccc(-c4ccc(F)cc4-c4nncn4C)cc3C2=O)n1 (centres unmarked) [Compound 334, 6-(4-Fluoro-2-(4-methyl-4H-1,2,4-triazol-3-yl)phenyl)-2-(6-methyl-4-(1-(1-methyl-1H-imidazol-2-yl)ethyl)pyridin-2-yl)isoindolin-1-one]	0.3 to 5
CN1CCC/C(=C/c2cc(Cl)nc(N3Cc4ccc(C5(Cc6nncn6C)COC5)cc4C3=O)c2)C1 [Compound 335, (Z)-2-(6-Chloro-4-((1-methylpiperidin-3-ylidene)methyl)pyridin-2-yl)-6-(3-((4-methyl-4H-1,2,4-triazol-3-yl)methyl)oxetan-3-yl)isoindolin-1-one]	0.08 to 0.3
Cc1cc(NCC2CCCN2)cc(N2Cc3ccc(C4(Cc5nncn5C)COC4)cc3C2=O)n1 (centres unmarked) [Compound 336, 2-(6-Methyl-4-((pyrrolidin-2-ylmethyl)amino)pyridin-2-yl)-6-(3-((4-methyl-4H-1,2,4-triazol-3-yl)methyl)oxetan-3-yl)isoindolin-1-one]	0.3 to 5
Cc1cc(CNC(CC(C)(C)O)C2CC2)cc(N2Cc3ccc(-c4ccc(F)cc4-c4nncn4C)cc3C2=O)n1 (centres unmarked) [Compound 338, 2-(4-(((1-Cyclopropyl-3-hydroxy-3-methylbutyl)amino)methyl)-6-methylpyridin-2-yl)-6-(4-fluoro-2-(4-methyl-4H-1,2,4-triazol-3-yl)phenyl)isoindolin-1-one]	0.08 to 0.3
Cc1cc(CNCC2CCCCN2)cc(N2Cc3ccc(-c4ccc(F)cc4-c4nncn4C)cc3C2=O)n1 (centres unmarked) [Compound 339, 6-(4-Fluoro-2-(4-methyl-4H-1,2,4-triazol-3-yl)phenyl)-2-(6-methyl-4-(((piperidin-2-ylmethyl)amino)methyl)pyridin-2-yl)isoindolin-1-one]	0.3 to 5
CN(CCC(F)(F)F)Cc1cc(Cl)nc(N2Cc3ccc(C4(Cc5nncn5C)COC4)cc3C2=O)c1 [Compound 340, 2-(6-Chloro-4-((methyl(3,3,3-trifluoropropyl)amino)methyl)-pyridin-2-yl)-6-(3-((4-methyl-4H-1,2,4-triazol-3-yl)methyl)oxetan-3-yl)isoindolin-1-one]	0.08 to 0.3

Test system: NFAT signaling pathway in Jurkat NFAT reporter cells
Experiment: Jurkat NFAT reporter assay
Format: cell-based
Details: Homo sapiens, 30 min with compound, then soluble anti-human CD3/CD28 antibody for 6 hours, luciferase readout, read-out: EC50 (Group)
Protocol: A human T lymphocyte Jurkat reporter cell line was further used to assess activation of the nuclear factor of activated T-cells (NFAT) signaling pathway by Cbl-b inhibitors. The reporter cell line is a genetically engineered Jurkat T cell line that expresses a luciferase reporter driven by an NFAT-response element (NFAT-RE). The Cbl-b inhibitor was incubated with 1×10^5 Jurkat NFAT reporter cells per well for 30 minutes. Subsequently, cells were stimulated with soluble anti-human CD3/CD28 antibody for 6 hours resulting in NFAT-RE-mediated luminescence. The bioluminescent signal is detected and quantified using Bio-Glo™ Luciferase Assay System. Readouts were reported as fold change over baseline. Here, baseline was the measurement obtained from Jurkat NFAT reporter cells stimulated with anti-CD3 antibody and anti-CD28 antibody, where the cells were not incubated with a Cbl-b inhibitor.

Structure (SMILES)	EC50 [µM]
C[C@@H]1C[C@H](C)CN(Cc2cc(N3Cc4ccc([C@@H](C)Cc5nncn5C)cc4C3=O)nc(C(F)(F)F)c2)C1 (single isomer, unassigned) [Compound 86]	< 0.3
C[C@@H]1C[C@H](C)CN(Cc2cc(N3Cc4ccc([C@H](C)Cc5nncn5C)cc4C3=O)nc(C(F)(F)F)c2)C1 (single isomer, unassigned) [Compound 87]	0.3 to 1
C[C@H]1CCCN(Cc2cc(Cl)nc(N3Cc4ccc([C@H](C)Cc5nncn5C)cc4C3=O)c2)C1 (single isomer, unassigned) [Compound 90]	< 0.3
CC1CCC(C)N(Cc2cc(N3Cc4ccc(C5(Cc6nncn6C)COC5)cc4C3=O)nc(C(F)(F)F)c2)C1 (centres unmarked) [Compound 93, 2-(4-((2,5-Dimethylpiperidin-1-yl)methyl)-6-(trifluoromethyl)pyridin-2-yl)-6-(3-((4-methyl-4H-1,2,4-triazol-3-yl)methyl)oxetan-3-yl)isoindolin-1-one]	0.3 to 1

From US20260226073A1 (AURIGENE ONCOLOGY LIMITED, priority 2023, published 2026)
